{"source": "patent US20240239759A1", "about": "“ISOXAZOLINE COMPOSITIONS AND THEIR USE AS ANTIPARASITICS” (Intervet Inc., priority 2007, published 2024)", "system": "cat fleas (Ctenocephalides felis)", "test": "Efficacy of various isoxazolines against cat fleas on mice (Example 3)", "format": "in vivo", "conditions": "Ctenocephalides felis, po, read-out: Flea inhibition relative to negative control", "description": "In this experiment, mice were randomly assigned to a treatment group or a negative control (untreated) group. Each group consisted of three mice. The mice in the treatment groups were orally administered 20 mg/kg bodyweight of various isoxazolines dissolved in 7% DMF-premix and 93% purified water (aqua ad injectabilia). The application volume of these treatments was 0.01 mL/g bodyweight. One hour after treatment, each mouse was sedated and generally infested (whole body) with 30 vital, adult fleas (C. felis). To achieve this, the sedated mice were placed into an infestation-jar, and the fleas were placed directly onto the fur. After approximately 30 minutes of feeding, fleas were recovered from the mice. Assessments for inhibition and mortality were conducted 1 hr, 24 hr, and 48 hr after each infestation. The efficacy was calculated as the percentage of inhibited fleas in the treatment groups relative to the negative control group.", "key": {"[1]": {"conditions": "1 h, mice, oral 20 mg/kg, infested 1 hr after treatment, 1 hr after infestation"}, "[2]": {"conditions": "24 h, mice, oral 20 mg/kg, infested 1 hr after treatment, 24 hr after infestation"}, "[3]": {"conditions": "48 h, mice, oral 20 mg/kg, infested 1 hr after treatment, 48 hr after infestation"}}, "note": "Read-outs that look alike come from different tables or passages of the source.", "data": [{"smiles": "COC(=O)N(C)C(=O)c1ccc(C2=NOC(c3cc(Cl)cc(Cl)c3)(C(F)(F)F)C2)cc1I", "note": "(stereo not drawn) [Compound 5-20]", "values": [{"measurement": "pest or weed control at 20 mg/kg", "setting": "[1]", "result": 4.4, "unit": "%"}, {"measurement": "pest or weed control at 20 mg/kg", "setting": "[2]", "result": 96.7, "unit": "%"}, {"measurement": "pest or weed control at 20 mg/kg", "setting": "[3]", "result": 97.8, "unit": "%"}]}, {"smiles": "Cc1cc(C2=NO[C@@](c3cc(Cl)cc(Cl)c3)(C(F)(F)F)C2)ccc1C(=O)NCC(=O)NCC(F)(F)F", "note": "(stereo in doubt) [Compound 17-1]", "values": [{"measurement": "pest or weed control at 20 mg/kg", "setting": "[1]", "result": 100, "unit": "%"}, {"measurement": "pest or weed control at 20 mg/kg", "setting": "[2]", "result": 100, "unit": "%"}, {"measurement": "pest or weed control at 20 mg/kg", "setting": "[3]", "result": 100, "unit": "%"}]}, {"smiles": "COCN(C(=O)OC)C(=O)c1ccc(C2=NOC(c3cc(Cl)cc(Cl)c3)(C(F)(F)F)C2)cc1I", "note": "(stereo not drawn) [Compound 5-29]", "values": [{"measurement": "pest or weed control at 20 mg/kg", "setting": "[1]", "result": 0, "unit": "%"}, {"measurement": "pest or weed control at 20 mg/kg", "setting": "[2]", "result": 68.9, "unit": "%"}, {"measurement": "pest or weed control at 20 mg/kg", "setting": "[3]", "result": 68.9, "unit": "%"}]}, {"smiles": "COCN(C(=O)OC)C(=O)c1ccc(C2=NOC(c3cc(Cl)cc(Cl)c3)(C(F)(F)F)C2)cc1Br", "note": "(stereo not drawn) [Compound 5-26]", "values": [{"measurement": "pest or weed control at 20 mg/kg", "setting": "[1]", "result": 0, "unit": "%"}, {"measurement": "pest or weed control at 20 mg/kg", "setting": "[2]", "result": 77.8, "unit": "%"}, {"measurement": "pest or weed control at 20 mg/kg", "setting": "[3]", "result": 77.8, "unit": "%"}]}, {"smiles": "Cc1cc(C2=NOC(c3cc(Cl)cc(Cl)c3)(C(F)(F)F)C2)ccc1C(=O)Nc1cncnc1", "note": "(stereo not drawn) [Compound 5-55]", "values": [{"measurement": "pest or weed control at 20 mg/kg", "setting": "[1]", "result": 0, "unit": "%"}, {"measurement": "pest or weed control at 20 mg/kg", "setting": "[2]", "result": 92.2, "unit": "%"}, {"measurement": "pest or weed control at 20 mg/kg", "setting": "[3]", "result": 93.3, "unit": "%"}]}, {"smiles": "CCc1cc(C2=NOC(c3cc(Cl)cc(Cl)c3)(C(F)(F)F)C2)ccc1C(=O)NCC(F)(F)F", "note": "(stereo not drawn) [Compound 5-15]", "values": [{"measurement": "pest or weed control at 20 mg/kg", "setting": "[1]", "result": 0, "unit": "%"}, {"measurement": "pest or weed control at 20 mg/kg", "setting": "[2]", "result": 31.1, "unit": "%"}, {"measurement": "pest or weed control at 20 mg/kg", "setting": "[3]", "result": 36.7, "unit": "%"}]}, {"smiles": "COC(CNC(=O)c1ccc(C2=NOC(c3cc(Cl)cc(Cl)c3)(C(F)(F)Cl)C2)cc1C)OC", "note": "(stereo not drawn) [Compound 5-53]", "values": [{"measurement": "pest or weed control at 20 mg/kg", "setting": "[1]", "result": 0, "unit": "%"}, {"measurement": "pest or weed control at 20 mg/kg", "setting": "[2]", "result": 82.2, "unit": "%"}, {"measurement": "pest or weed control at 20 mg/kg", "setting": "[3]", "result": 91.1, "unit": "%"}]}, {"smiles": "COC(=O)N(COC(C)C)C(=O)c1ccc(C2=NOC(c3cc(Cl)cc(Cl)c3)(C(F)(F)F)C2)cc1C", "note": "(stereo not drawn) [Compound 5-27]", "values": [{"measurement": "pest or weed control at 20 mg/kg", "setting": "[1]", "result": 12.2, "unit": "%"}, {"measurement": "pest or weed control at 20 mg/kg", "setting": "[2]", "result": 72.2, "unit": "%"}, {"measurement": "pest or weed control at 20 mg/kg", "setting": "[3]", "result": 84.4, "unit": "%"}]}, {"smiles": "CCO/C(N)=N\\C(=O)c1ccc(C2=NOC(c3cc(Cl)cc(Cl)c3)(C(F)(F)Cl)C2)cc1C", "note": "(stereo not drawn) [Compound 5-38]", "values": [{"measurement": "pest or weed control at 20 mg/kg", "setting": "[1]", "result": 2.3, "unit": "%"}, {"measurement": "pest or weed control at 20 mg/kg", "setting": "[2]", "result": 96.7, "unit": "%"}, {"measurement": "pest or weed control at 20 mg/kg", "setting": "[3]", "result": 97.7, "unit": "%"}]}, {"smiles": "CC(=O)N(C(=O)c1ccc(C2=NOC(c3cc(Cl)cc(Cl)c3)(C(F)(F)F)C2)cc1C)c1ncc(Br)cn1", "note": "(stereo not drawn) [Compound 5-22]", "values": [{"measurement": "pest or weed control at 20 mg/kg", "setting": "[1]", "result": 0, "unit": "%"}, {"measurement": "pest or weed control at 20 mg/kg", "setting": "[2]", "result": 82.2, "unit": "%"}, {"measurement": "pest or weed control at 20 mg/kg", "setting": "[3]", "result": 83.3, "unit": "%"}]}, {"smiles": "O=C(CNC(=O)c1ccc(C2=NOC(c3cc(Cl)c(Cl)c(C(F)(F)F)c3)(C(F)(F)F)C2)cc1)NCC(F)(F)F", "note": "(stereo not drawn) [Compound 5-39]", "values": [{"measurement": "pest or weed control at 20 mg/kg", "setting": "[1]", "result": 13.3, "unit": "%"}, {"measurement": "pest or weed control at 20 mg/kg", "setting": "[2]", "result": 99, "unit": "%"}, {"measurement": "pest or weed control at 20 mg/kg", "setting": "[3]", "result": 99, "unit": "%"}]}, {"smiles": "Cc1cc(C2=NOC(c3cc(Cl)cc(Cl)c3)(C(F)(F)F)C2)ccc1C(=O)N(C(=O)C(C)C)c1ncc(Cl)cn1", "note": "(stereo not drawn) [Compound 5-23]", "values": [{"measurement": "pest or weed control at 20 mg/kg", "setting": "[1]", "result": 0, "unit": "%"}, {"measurement": "pest or weed control at 20 mg/kg", "setting": "[2]", "result": 87.8, "unit": "%"}, {"measurement": "pest or weed control at 20 mg/kg", "setting": "[3]", "result": 94.4, "unit": "%"}]}, {"smiles": "CC(=O)N(C(=O)c1ccc(C2=NOC(c3cc(Cl)cc(Cl)c3)(C(F)(F)F)C2)cc1C)c1cnccn1", "note": "(stereo not drawn) [Compound 5-32]", "values": [{"measurement": "pest or weed control at 20 mg/kg", "setting": "[1]", "result": 0, "unit": "%"}, {"measurement": "pest or weed control at 20 mg/kg", "setting": "[2]", "result": 70, "unit": "%"}, {"measurement": "pest or weed control at 20 mg/kg", "setting": "[3]", "result": 71.1, "unit": "%"}]}, {"smiles": "COCN(C(=O)c1ccc(C2=NOC(c3cc(Cl)cc(Cl)c3)(C(F)(F)F)C2)cc1C)c1ncc(Cl)cn1", "note": "(stereo not drawn) [Compound 5-28]", "values": [{"measurement": "pest or weed control at 20 mg/kg", "setting": "[1]", "result": 1.1, "unit": "%"}, {"measurement": "pest or weed control at 20 mg/kg", "setting": "[2]", "result": 70, "unit": "%"}, {"measurement": "pest or weed control at 20 mg/kg", "setting": "[3]", "result": 71.1, "unit": "%"}]}, {"smiles": "Cc1cc(C2=NOC(c3cc(Cl)cc(Cl)c3)(C(F)(F)F)C2)ccc1C(=S)NCc1cscn1", "note": "(stereo not drawn) [Compound X-1]", "values": [{"measurement": "pest or weed control at 20 mg/kg", "setting": "[1]", "result": 4.3, "unit": "%"}, {"measurement": "pest or weed control at 20 mg/kg", "setting": "[2]", "result": 100, "unit": "%"}, {"measurement": "pest or weed control at 20 mg/kg", "setting": "[3]", "result": 100, "unit": "%"}]}, {"smiles": "CCO/C(N)=N\\C(=O)c1ccc(C2=NOC(c3cc(Br)cc(Br)c3)(C(F)(F)F)C2)cc1C", "note": "(stereo not drawn) [Compound 5-37]", "values": [{"measurement": "pest or weed control at 20 mg/kg", "setting": "[1]", "result": 7.7, "unit": "%"}, {"measurement": "pest or weed control at 20 mg/kg", "setting": "[2]", "result": 99, "unit": "%"}, {"measurement": "pest or weed control at 20 mg/kg", "setting": "[3]", "result": 100, "unit": "%"}]}, {"smiles": "CC(NC(=O)c1ccc(C2=NOC(c3cc(Cl)c(Cl)c(Cl)c3)(C(F)(F)F)C2)cc1)C(=O)NCC(F)(F)F", "note": "(stereo not drawn) [Compound 5-35]", "values": [{"measurement": "pest or weed control at 20 mg/kg", "setting": "[1]", "result": 0, "unit": "%"}, {"measurement": "pest or weed control at 20 mg/kg", "setting": "[2]", "result": 100, "unit": "%"}, {"measurement": "pest or weed control at 20 mg/kg", "setting": "[3]", "result": 100, "unit": "%"}]}, {"smiles": "CCNC(=O)CNC(=O)c1ccc(C2=NOC(c3cc(Cl)cc(Cl)c3)(C(F)(F)F)C2)cc1C", "note": "(stereo not drawn) [Compound 14-1]", "values": [{"measurement": "pest or weed control at 20 mg/kg", "setting": "[1]", "result": 97.8, "unit": "%"}, {"measurement": "pest or weed control at 20 mg/kg", "setting": "[2]", "result": 100, "unit": "%"}, {"measurement": "pest or weed control at 20 mg/kg", "setting": "[3]", "result": 100, "unit": "%"}]}, {"smiles": "Cc1cc(C2=NOC(c3cc(Cl)c(F)c(Cl)c3)(C(F)(F)F)C2)ccc1C(=O)NCC(=O)NCC(F)(F)F", "note": "(stereo not drawn) [Compound 5-40]", "values": [{"measurement": "pest or weed control at 20 mg/kg", "setting": "1 h", "result": 0, "unit": "%"}, {"measurement": "pest or weed control at 20 mg/kg", "setting": "24 h", "result": 85.6, "unit": "%"}, {"measurement": "pest or weed control at 20 mg/kg", "setting": "48 h", "result": 85.6, "unit": "%"}]}, {"smiles": "Cc1cc(C2=NO[C@](c3cc(Cl)cc(Cl)c3)(C(F)(F)F)C2)ccc1C(=O)NCC(=O)NCC(F)(F)F", "note": "[Compound 11-1R]", "values": [{"measurement": "pest or weed control at 20 mg/kg", "setting": "[1]", "result": 0, "unit": "%"}, {"measurement": "pest or weed control at 20 mg/kg", "setting": "[2]", "result": 0, "unit": "%"}, {"measurement": "pest or weed control at 20 mg/kg", "setting": "[3]", "result": 0, "unit": "%"}]}]}
